Legend:
memory disorders = conditions: SDAT patients, intravenous infusion at a rate of 3.4-14 μg/kg. hr; cited from earlier work
[1] = system: Whole blood cholinesterase; experiment: whole blood cholinesterase after dermal application or injection in guinea pigs; assay type: in vivo; conditions: injection, guinea pigs (FIG. 2)
Experimental: (§1) Laboratory animal species used throughout this study consisted of albino guinea pigs of either sex of a local strain, (Dunkin-Hadley origin), weighing between 300-400 g, and female pigs of the large White and Lundrace strain, 8-12 weeks of age, weighing 8-14 kg.
(§2) At 30 minutes prior to dermal application of test solutions, the hair at the test sites was closely clipped. Only animals in which the skin at the test sites appeared grossly normal and was free of bites, scratches or bruises, were selected for the study.
(§3) Treatment solutions for dermal application were freshly prepared and applied to a pre-determined area of a commercially available pad, (micropad dressing 3M No. 1610, U.S. Pat. No. 3,285,245) which in turn was secured to dorsal test-sites by an adhesive bandage, serving at the same time as an occlusive dressing. […] Intervals between bleedings were 2 hours in guinea pigs, and 30 minutes in pigs.
(§4) Cholinesterase Determinations: Whole blood cholinesterase activity was determined by the method of Ellman [G.L. Ellman et al, Biochem. Pharmacol. 7, 83 (1961)], or by that described by Johnson and Russell [C.D. Johnson and R. L. Russell, Anal Biochem 64, 229 (1975)]. Data obtained in experimental animals (guinea pigs and pigs) show a remarkable prolonging of the duration of action of the dermally applied drug when compared with systemic administration.

[2] = system: Whole blood cholinesterase; experiment: whole blood cholinesterase after dermal application or intramuscular injection in pigs; assay type: in vivo; conditions: intramuscular injection, pigs (FIG. 1)
Experimental: as §1, §2, §3, §4

Which “effect on memory disorders” value (memory disorders) does the source give for `CNC(=O)Oc1ccc2c(c1)[C@]1(C)CCN(C)[C@@H]1N2C` [physostigmine] here?
The value was “improvement in memory disorders”.

What about the “duration of the effect” value [1] of the same compound?
Its value is 2 to 3 h.

And the “duration of the effect” value [2]?
Its value is 2 to 3 h.
